What follows are compounds tested against Bcl-2 (Homo sapiens, UniProt P10415) (assay: Homogeneous HTS assay for inhibitors of the Bcl-2 : Bak (72-87) BH3 domain interaction, fluorescence polarisation (2D-FIDA)). Details: fluorescence polarisation, fluorescent labelled Bak BH3 domain derived peptide; read-out: IC50 [μM] Bcl-2.
Assay type: binding

Bcl-2, sequence (P10415 whole entry, species assumed, the tested form may be a part): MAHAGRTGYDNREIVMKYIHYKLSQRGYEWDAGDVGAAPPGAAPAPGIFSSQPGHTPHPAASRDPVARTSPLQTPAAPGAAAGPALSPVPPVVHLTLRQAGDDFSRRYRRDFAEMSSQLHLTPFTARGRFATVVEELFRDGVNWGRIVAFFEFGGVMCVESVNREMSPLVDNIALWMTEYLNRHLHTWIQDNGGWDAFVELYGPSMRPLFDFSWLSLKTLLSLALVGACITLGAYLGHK

Row | IC50 | Compound
1 | < 10 µM | CCOC(=O)c1cccc(OCCCn2c(=N)n(Cc3ccc(N4CCN(Cc5ccccc5-c5ccccc5)CC4)cc3)c3ccccc32)c1 [Compound 69, 3-(3-{3-[4-(4-Biphenyl-2-ylmethyl-piperazin-1-yl)-benzyl]-2-imino-2,3-dihydro-benzoimidazol-1-yl}-propoxy)-benzoic acid ethyl ester]
2 | 11 to 100 µM | N=c1n(CCCOc2ccc(F)cc2)c2ccccc2n1Cc1cccc(C(=O)O)c1 [Compound 72, 3-{3-[3-(4-Fluoro-phenoxy)-propyl]-2-imino-2,3-dihydro-benzoimidazol-1-ylmethyl}-benzoic acid]
3 | < 10 µM | CCOC(=O)c1cccc(OCCCn2c(=N)n(Cc3ccc(N4CCN(Cc5ccccc5-c5ccc(Cl)cc5)CC4)cc3)c3ccccc32)c1 [Compound 73, 3-[3-(3-{4-[4-(4′-Chloro-biphenyl-2-ylmethyl)-piperazin-1-yl]-benzyl}-2-imino-2,3-dihydro-benzoimidazol-1-yl)-propoxy]-benzoic acid ethyl ester]
4 | < 10 µM | CC1(C)CCC(c2ccc(Cl)cc2)=C(CN2CCN(c3cccc(Cn4c(=N)n(CCCOc5cccc(C(=O)O)c5)c5ccccc54)c3)CC2)C1 [Compound 75, 3-{3-[3-(3-{4-[2-(4-Chloro-phenyl)-5,5-dimethyl-cyclohex-1-enylmethyl]-piperazin-1-yl}-benzyl)-2-imino-2,3-dihydro-benzoimidazol-1-yl]-propoxy}-benzoic acid]
5 | 11 to 100 µM | N=c1n(Cc2ccccc2)c2ccccc2n1CC(O)COc1ccccc1 (centres unmarked) [Compound 78, 1-(3-Benzyl-2-imino-2,3-dihydro-benzoimidazol-1-yl)-3-phenoxy-propan-2-ol]
6 | 11 to 100 µM | Cc1ccccc1OCC(O)Cn1c(=N)n(Cc2ccccc2)c2ccccc21 (centres unmarked) [Compound 79, 1-(3-Benzyl-2-imino-2,3-dihydro-benzoimidazol-1-yl)-3-o-tolyloxy-propan-2-ol]
7 | < 10 µM | N=c1n(Cc2cccc(N3CCN(Cc4ccccc4-c4ccccc4)CC3)c2)c2ccccc2n1CC(O)COc1ccc(F)cc1 (centres unmarked) [Compound 82, 1-{3-[3-(4-Biphenyl-2-ylmethyl-piperazin-1-yl)-benzyl]-2-imino-2,3-dihydro-benzoimidazol-1-yl}-3-(4-fluoro-phenoxy)-propan-2-ol]
8 | 11 to 100 µM | N=c1n(CCCOc2ccc(Br)cc2)c2ccccc2n1Cc1ccccc1 [Compound 87, 1-Benzyl-3-[3-(4-bromo-phenoxy)-propyl]-1,3-dihydro-benzoimidazol-2-ylideneamine]
9 | 11 to 100 µM | COc1ccccc1OCC(O)Cn1c(=N)n(Cc2ccccc2)c2ccccc21 (centres unmarked) [Compound 89, 1-(3-Benzyl-2-imino-2,3-dihydro-benzoimidazol-1-yl)-3-(2-methoxy-phenoxy)-propan-2-ol]
10 | > 100 µM | N=c1n(Cc2ccccc2)c2ccccc2n1CC(O)c1ccccc1 (centres unmarked) [Compound 92, 2-(3-Benzyl-2-imino-2,3-dihydro-benzoimidazol-1-yl)-1-phenyl-ethanol]
11 | 11 to 100 µM | Cc1ccccc1Cn1c(=N)n(CCCOc2ccccc2)c2ccccc21 [Compound 94, 1-(2-Methyl-benzyl)-3-(3-phenoxy-propyl)-1,3-dihydro-benzoimidazol-2-ylideneamine]

Continued, compound first:

Row | Compound | IC50
12 | N=c1n(CCCOc2cccc(C(=O)O)c2)c2ccccc2n1Cc1ccc(N2CCN(Cc3ccccc3-c3ccccc3)CC2)cc1 [Compound 70, 3-(3-{3-[4-(4-Biphenyl-2-ylmethyl-piperazin-1-yl)-benzyl]-2-imino-2,3-dihydro-benzoimidazol-1-yl}-propoxy)-benzoic acid] | < 10 µM
13 | CCOC(=O)c1cccc(OCCCn2c(=N)n(Cc3ccccc3)c3ccccc32)c1 [Compound 71, 3-[3-(3-Benzyl-2-imino-2,3-dihydro-benzoimidazol-1-yl)-propoxy]-benzoic acid ethyl ester] | 11 to 100 µM
14 | N=c1n(CCCOc2cccc(C(=O)O)c2)c2ccccc2n1Cc1ccc(N2CCN(Cc3ccccc3-c3ccc(Cl)cc3)CC2)cc1 [Compound 74, 3-[3-(3-{4-[4-(4′-Chloro-biphenyl-2-ylmethyl)-piperazin-1-yl]-benzyl}-2-imino-2,3-dihydro-benzoimidazol-1-yl)-propoxy]-benzoic acid] | < 10 µM
15 | N=c1n(Cc2cccc(Br)c2)c2ccccc2n1CC(O)COc1ccc(F)cc1 (centres unmarked) [Compound 76, 1-[3-(3-Bromo-benzyl)-2-imino-2,3-dihydro-benzoimidazol-1-yl]-3-(4-fluoro-phenoxy)-propan-2-ol] | 11 to 100 µM
16 | N=c1n(Cc2ccc(Br)cc2)c2ccccc2n1CC(O)COc1ccc(F)cc1 (centres unmarked) [Compound 77, 1-[3-(4-Bromo-benzyl)-2-imino-2,3-dihydro-benzoimidazol-1-yl]-3-(4-fluoro-phenoxy)-propan-2-ol] | < 10 µM
17 | N=c1n(Cc2ccccc2)c2ccccc2n1CC(O)COc1ccc(Cl)cc1 (centres unmarked) [Compound 80, 1-(3-Benzyl-2-imino-2,3-dihydro-benzoimidazol-1-yl)-3-(4-chloro-phenoxy)-propan-2-ol] | 11 to 100 µM
18 | N=c1n(Cc2ccccc2)c2ccccc2n1CC(O)COc1ccc([N+](=O)[O-])cc1 (centres unmarked) [Compound 81, 1-(3-Benzyl-2-imino-2,3-dihydro-benzoimidazol-1-yl)-3-(4-nitro-phenoxy)-propan-2-ol] | 11 to 100 µM
19 | N=c1n(Cc2ccc(N3CCN(Cc4ccccc4-c4ccccc4)CC3)cc2)c2ccccc2n1CC(O)COc1ccc(F)cc1 (centres unmarked) [Compound 83, 1-{3-[4-(4-Biphenyl-2-ylmethyl-piperazin-1-yl)-benzyl]-2-imino-2,3-dihydro-benzoimidazol-1-yl}-3-(4-fluoro-phenoxy)-propan-2-ol] | < 10 µM
20 | N=c1n(CCCOc2cccc(C(=O)O)c2)c2ccccc2n1Cc1cccc(Br)c1 [Compound 84, 3-{3-[3-(3-Bromo-benzyl)-2-imino-2,3-dihydro-benzoimidazol-1-yl]-propoxy}-benzoic acid] | 11 to 100 µM
21 | N=c1n(CCCOc2cccc(C(=O)O)c2)c2ccccc2n1Cc1ccc(Br)cc1 [Compound 85, 3-{3-[3-(4-Bromo-benzyl)-2-imino-2,3-dihydro-benzoimidazol-1-yl]-propoxy}-benzoic acid] | 11 to 100 µM
22 | CS(=O)(=O)NC(=O)c1cccc(OCCCn2c(=N)n(Cc3cccc(Br)c3)c3ccccc32)c1 [Compound 86, N-(3-{3-[3-(3-Bromo-benzyl)-2-imino-2,3-dihydro-benzoimidazol-1-yl]-propoxy}-benzoyl)-methanesulfonamide] | < 10 µM
23 | COc1ccc(OCC(O)Cn2c(=N)n(Cc3ccccc3)c3ccccc32)cc1 (centres unmarked) [Compound 88, 1-(3-Benzyl-2-imino-2,3-dihydro-benzoimidazol-1-yl)-3-(4-methoxy-phenoxy)-propan-2-ol] | 11 to 100 µM
24 | N=c1n(Cc2ccccc2)c2ccccc2n1CC(O)c1ccco1 (centres unmarked) [Compound 91, 2-(3-Benzyl-2-imino-2,3-dihydro-benzoimidazol-1-yl)-1-furan-2-yl-ethanol] | > 100 µM
25 | CCCCn1c(=N)n(CC(O)COc2ccccc2OC)c2ccccc21 (centres unmarked) [Compound 93, 1-(3-Butyl-2-imino-2,3-dihydro-benzoimidazol-1-yl)-3-(2-methoxy-phenoxy)-propan-2-ol] | > 100 µM
26 | COc1ccccc1OCCn1c(=N)n(Cc2ccccc2)c2ccccc21 [Compound 95, 1-Benzyl-3-[2-(2-methoxy-phenoxy)-ethyl]-1,3-dihydro-benzoimidazol-2-ylideneamine] | 11 to 100 µM
